Data on seven molecules can be found in US11174248B2, “Indazolyl-spiro[2.3]hexane-carbonitrile derivatives as LRRK2 inhibitors, pharmaceutical compositions, and uses thereof” (Merck Sharp & Dohme Corp., priority 2017, dated 2021).

Chain of GST-tagged truncated human mutant G2019S LRRK2 (Q5S007 970-2527 G2019S): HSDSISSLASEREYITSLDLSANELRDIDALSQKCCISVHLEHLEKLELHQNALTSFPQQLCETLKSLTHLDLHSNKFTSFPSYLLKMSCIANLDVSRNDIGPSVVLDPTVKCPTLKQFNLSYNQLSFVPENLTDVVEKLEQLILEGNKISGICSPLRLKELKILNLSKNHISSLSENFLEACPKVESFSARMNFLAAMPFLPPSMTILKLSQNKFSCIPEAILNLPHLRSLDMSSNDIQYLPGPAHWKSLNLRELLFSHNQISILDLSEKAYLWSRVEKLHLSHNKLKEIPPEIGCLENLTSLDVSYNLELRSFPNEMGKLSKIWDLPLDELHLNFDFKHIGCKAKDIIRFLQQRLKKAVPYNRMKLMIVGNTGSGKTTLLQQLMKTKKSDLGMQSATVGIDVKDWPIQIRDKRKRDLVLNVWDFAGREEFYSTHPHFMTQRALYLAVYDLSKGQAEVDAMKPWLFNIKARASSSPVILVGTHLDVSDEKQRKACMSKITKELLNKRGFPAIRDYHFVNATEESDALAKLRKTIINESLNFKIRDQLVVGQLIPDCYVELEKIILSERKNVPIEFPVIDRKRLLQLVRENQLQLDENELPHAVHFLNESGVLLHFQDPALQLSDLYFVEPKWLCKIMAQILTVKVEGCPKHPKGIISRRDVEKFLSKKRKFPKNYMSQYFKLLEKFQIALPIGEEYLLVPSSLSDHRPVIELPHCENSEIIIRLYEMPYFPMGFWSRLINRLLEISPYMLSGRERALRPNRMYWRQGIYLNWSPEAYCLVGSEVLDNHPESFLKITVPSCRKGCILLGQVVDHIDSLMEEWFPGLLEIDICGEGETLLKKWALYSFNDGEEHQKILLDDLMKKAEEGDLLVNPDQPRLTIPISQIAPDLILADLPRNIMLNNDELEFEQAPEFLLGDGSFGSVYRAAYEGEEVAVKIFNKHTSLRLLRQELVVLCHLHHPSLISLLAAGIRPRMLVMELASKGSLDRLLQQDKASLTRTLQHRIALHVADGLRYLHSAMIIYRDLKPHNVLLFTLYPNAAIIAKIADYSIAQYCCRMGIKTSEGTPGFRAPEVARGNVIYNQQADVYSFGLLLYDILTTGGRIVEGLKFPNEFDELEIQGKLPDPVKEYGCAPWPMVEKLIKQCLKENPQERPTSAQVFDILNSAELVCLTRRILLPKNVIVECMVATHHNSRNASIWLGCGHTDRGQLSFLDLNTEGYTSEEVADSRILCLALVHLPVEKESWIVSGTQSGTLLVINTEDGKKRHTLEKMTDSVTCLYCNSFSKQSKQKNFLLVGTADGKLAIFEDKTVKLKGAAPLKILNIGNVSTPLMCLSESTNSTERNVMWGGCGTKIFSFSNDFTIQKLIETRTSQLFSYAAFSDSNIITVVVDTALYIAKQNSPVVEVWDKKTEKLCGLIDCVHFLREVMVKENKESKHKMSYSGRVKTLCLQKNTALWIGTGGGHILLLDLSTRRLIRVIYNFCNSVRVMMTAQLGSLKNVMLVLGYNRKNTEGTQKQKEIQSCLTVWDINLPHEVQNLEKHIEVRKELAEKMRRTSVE

In this assay the target is GST-tagged truncated human mutant G2019S LRRK2 (Homo sapiens (Human), UniProt Q5S007, G2019S). The assay is described as follows: LRRK2 Km ATP LanthaScreen Assay. The format is biochemical. Conditions: 134 μM ATP (Km ATP); fluorescein-labeled LRRKtide substrate; mean IC50 values. The method, then:
Unless otherwise noted, all LRRK2 IC50 data presented in tables refers to the LRRK2 Km ATP LanthaScreen™ Assay that is described in the Biological Assay section.
Biological Assay: LRRK2 Km ATP LanthaScreen™ Assay
The LRRK2 kinase activity reported herein as IC50 values was determined with LanthaScreen™ technology from Life Technologies Corporation (Carlsbad, Calif.) using GST-tagged truncated human mutant G2019S LRRK2 in the presence of the fluorescein-labeled peptide substrate LRRKtide, also from Life Technologies. The data presented for the Km ATP LanthaScreen™ Assay represents mean IC50 values based on several test results and may have reasonable deviations depending on the specific conditions and reagents used. Assays were performed in the presence of 134 μM ATP (Km ATP). Upon completion, the assay was stopped and phosphorylated substrate detected with a terbium (Tb)-labeled anti-pERM antibody (cat. no. PV4898). The compound dose response was prepared by diluting a 10 mM stock of compound to a maximum concentration of 9.99 μM in 100% dimethylsulfoxide followed by custom fold serial dilution in dimethylsulfoxide nine times. Twenty nanoliters of each dilution was spotted via a Labcyte Echo onto a 384-well black-sided plate (Corning 3575) followed by 15 μl of a 1.25 nM enzyme solution in 1× assay buffer (50 mM Tris pH 8.5, 10 mM MgCl2, 0.01% Brij-35, 1 mM EGTA, 2 mM dithiothreitol, 0.05 mM sodium orthovanadate) Following a 15-minute incubation at room temperature, the kinase reaction was started with the addition of 5 μl of 400 nM fluorescein-labeled LRRKtide peptide substrate and 134 μM ATP solution in 1× assay buffer. The reaction was allowed to progress at ambient temperature for 90 minutes. The reaction was then stopped by the addition of 20 μl of TR-FRET Dilution Buffer (Life Technologies, Carlsbad, Calif.) containing 2 nM Tb-labeled anti-phospho LRRKtide antibody and 10 mM EDTA (Life Technologies, Carlsbad, Calif.). After an incubation of 1 hour at room temperature, the plate was read on an EnVision multimode plate reader (Perkin Elmer, Waltham, Mass.) with an excitation wavelength of 337 nm (Laser) and a reading emission at both 520 and 495 nm. Compound IC50s were interpolated from nonlinear regression best fits of the log of the final compound concentration, plotted as a function of the 520/495-nm emission ratio using Activity base. Abase uses a 4 parameter (4P) logistic fit based on the Levenberg-Marquardt algorithm.
On the technique in general: In TR-FRET formats the signal depends on donor and acceptor labels being close together.
Usually IC50 stands for the concentration that inhibits the measured activity by half. A higher IC50 goes with a need for much substance. `C[C@H]1CN(c2cc(-n3ncc4ccc(C5(C#N)CC6(CC6)C5)cc43)ncn2)CCN1C1COC1` [Example 13, (S)-5-(1-(6-(3-methyl-4-(oxetan-3-yl)piperazin-1-yl)pyrimidin-4-yl)-1H-indazol-6-yl)spiro[2.3]hexane-5-carbonitrile]: the IC50 came to 1 nM. The value for `COCC12CC(C1)N(c1cc(-n3ncc4ccc(C5(C#N)CC6(CC6)C5)cc43)ncn1)C2` [Example 9, 5-(1-(6-(4-(methoxymethyl)-2-azabicyclo[2.1.1]hexan-2-yl)pyrimidin-4-yl)-1H-indazol-6-yl)spiro[2.3]hexane-5-carbonitrile] was 9.3 nM. In turn, `CC1C2(CC2)CC1(C#N)c1ccc2cnn(-c3cc(N4CCN5CCOC[C@@H]5C4)ncn3)c2c1` (single isomer, unassigned) [Example 54] returned an IC50 of 1.7 nM. Turning to `Cc1nc(N2CC[C@H](O)[C@H](F)C2)cc(-n2ncc3ccc(C4(C#N)CC5(CC5)C4)cc32)n1` [Example 3, 5-(1-(6-((3R,4S)-3-fluoro-4-hydroxypiperidin-1-yl)-2-methylpyrimidin-4-yl)-1H-indazol-6-yl)spiro[2.3]hexane-5-carbonitrile], the IC50 was 18 nM. For `CN1CCN(c2cc(-n3ncc4ccc(C5(C#N)CC6(CC6)C5)cc43)ncn2)CC1CO` (single isomer, unassigned) [Example 15, 5-(1-(6-(3-(hydroxymethyl)-4-methylpiperazin-1-yl)pyrimidin-4-yl)-1H-indazol-6-yl)spiro[2.3]hexane-5-carbonitrile], the IC50 amounted to 3.8 nM.

With `CC1C(C(C)(C)O)CCN1c1cc(-n2ncc3ccc(C4(C#N)CC5(CC5)C4)cc32)ncn1` (single isomer, unassigned) [Example 39, 5-(1-(6-(3-(2-hydroxypropan-2-yl)-2-methylpyrrolidin-1-yl)pyrimidin-4-yl)-1H-indazol-6-yl)spiro[2.3]hexane-5-carbonitrile], the IC50 is 1.2 nM.

For the molecule `CC1CC12CC(C#N)(c1ccc3cnn(-c4cc(N5CCN6CCOC[C@@H]6C5)ncn4)c3c1)C2` (single isomer, unassigned) [Example 52], the midpoint of inhibition, the IC50, lay at 2.4 nM.
